Like-named read-outs stand apart in the source and are kept apart here.

Eight compounds from US9290440B2, “Bicyclic compound” (TOA EIYO LTD., priority 2012, dated 2016) can be followed below.

Experiment [1] concerns the target T1, human sGC α subunit and β subunit (Homo sapiens, UniProt Q02153).
T1 construct: expressed in transfected cells
T1 sequence (Q02153 1-619): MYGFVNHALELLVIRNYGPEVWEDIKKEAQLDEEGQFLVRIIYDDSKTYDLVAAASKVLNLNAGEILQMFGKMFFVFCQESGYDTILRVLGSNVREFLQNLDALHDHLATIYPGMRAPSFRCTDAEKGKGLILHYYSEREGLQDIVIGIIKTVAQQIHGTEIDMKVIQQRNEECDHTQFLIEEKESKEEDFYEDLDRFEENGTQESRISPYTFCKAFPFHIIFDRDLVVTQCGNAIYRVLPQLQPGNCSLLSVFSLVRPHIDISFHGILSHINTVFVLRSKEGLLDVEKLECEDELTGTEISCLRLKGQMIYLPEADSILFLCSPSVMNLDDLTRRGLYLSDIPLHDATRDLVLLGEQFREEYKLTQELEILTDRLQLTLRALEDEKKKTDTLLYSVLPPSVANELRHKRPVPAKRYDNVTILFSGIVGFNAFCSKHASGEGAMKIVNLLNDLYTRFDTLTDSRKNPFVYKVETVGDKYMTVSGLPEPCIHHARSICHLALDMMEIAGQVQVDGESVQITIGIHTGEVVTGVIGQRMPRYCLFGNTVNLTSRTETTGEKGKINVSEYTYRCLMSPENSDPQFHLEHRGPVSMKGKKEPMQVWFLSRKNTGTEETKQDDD
T1 sequence (Q02108 1-690 partner): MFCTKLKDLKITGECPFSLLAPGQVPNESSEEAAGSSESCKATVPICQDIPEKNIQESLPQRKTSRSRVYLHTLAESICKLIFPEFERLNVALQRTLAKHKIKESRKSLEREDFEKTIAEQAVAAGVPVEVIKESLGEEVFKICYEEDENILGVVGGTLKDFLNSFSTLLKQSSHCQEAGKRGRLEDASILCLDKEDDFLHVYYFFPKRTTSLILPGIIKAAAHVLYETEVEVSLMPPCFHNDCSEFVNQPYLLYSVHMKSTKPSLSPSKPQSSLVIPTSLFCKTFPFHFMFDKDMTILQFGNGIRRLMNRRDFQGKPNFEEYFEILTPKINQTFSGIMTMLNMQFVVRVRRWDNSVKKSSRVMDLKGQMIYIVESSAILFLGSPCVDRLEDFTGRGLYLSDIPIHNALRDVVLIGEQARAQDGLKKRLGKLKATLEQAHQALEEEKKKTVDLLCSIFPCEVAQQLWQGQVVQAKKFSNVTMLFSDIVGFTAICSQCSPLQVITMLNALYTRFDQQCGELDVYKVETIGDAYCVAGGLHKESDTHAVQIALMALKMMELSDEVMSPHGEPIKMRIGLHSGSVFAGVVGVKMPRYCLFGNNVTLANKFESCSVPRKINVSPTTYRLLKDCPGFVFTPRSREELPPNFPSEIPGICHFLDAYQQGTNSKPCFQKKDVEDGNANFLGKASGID
Put plainly: Maximum effect of sGC activating function (Ca2+ fluorescence in CHO-K1 cells expressing human sGC and mouse CNGA2). It is filed as cell-based. Conditions: increase ratio of sGC activity vs control solution at 10 μmol/L test compound. The protocol: (§1) For the assay, Chinese hamster ovary cells (CHO-K1 cells) in which human sGC α subunit and β subunit and mouse cyclic nucleotide gated channel (CNGA2) are stably expressed were used.
(§2) CHO-K1 cells in which human sGC and mouse CNGA2 are stably expressed were cultured at 37° C. in F-12 medium containing 10% (v/v) fetal bovine serum (FBS), penicillin (100 U/mL), streptomycin (100 μg/mL), G418 (250 μg/mL), and zeocin (250 μg/mL). The cells were suspended in the culture medium and seeded onto a 96-well plate, and then cultured at 37° C. for 24 hours. After washing with assay buffer 1 (140 mmol/L sodium chloride, 5 mmol/L potassium chloride, 0.5 mmol/L magnesium chloride, 0.01 mmol/L calcium chloride, 10 mmol/L glucose, 0.4 mmol/L magnesium sulfate, 10 mmol/L 4-(2-hydroxyethyl)piperazin-1-ylethane sulfonic acid, and 125 μmol/L sulfinpyrazone, pH 7.4), an indicator solution in which FURA2-AM as a fluorescent Ca^2+ indicator is dissolved at concentration of 5 μmol/L in assay buffer 1 was added followed by culture for 60 minutes at 37° C. The indicator solution was removed. After washing with assay buffer 1, the test compound solution was added and incubated for 10 minutes at room temperature. The plate was placed in a fluorometer (Flex Station II, Molecular Devices, LLC), and then the intracellular calcium concentration was measured as fluorescence intensity ratio which is obtained from each excitation wavelength (excitation wavelength of 340 nm and 380 nm and detection wavelength of 510 nm).
(§3) The test compound solution was prepared by dissolving each of the test compounds in DMSO to a concentration of 10 mmol/L, and then adding the assay buffer 2 (140 mmol/L sodium chloride, 5 mmol/L potassium chloride, 0.5 mmol/L magnesium chloride, 1 mmol/L calcium chloride, 10 mmol/L glucose, 0.4 mmol/L magnesium sulfate, 10 mmol/L 4-(2-hydroxyethyl)piperazin-1-ylethane sulfonic acid, 125 μmol/L sulfinpyrazone, 100 μmol/L isobutylmethylxanthine, 10 μmol/L 1H-[1,2,4]-oxadiazole[4,3-a]quinoxalin-1-one (hereinbelow, ODQ), pH 7.4) for dilution to have test concentration of 10 μmol/L. For the evaluation of a case in which ODQ is not contained, the same evaluation was performed except that ODQ is excluded from assay buffer 2. As a control solution, a DMSO solution was used instead of the test compound solution.
(§4) The activity of the test compound corresponds to the increase ratio (%) of the sGC activity at the time of adding the test compound solution with respect to the sGC activity at the time of adding the control solution, and it was calculated by dividing the fluorescence intensity ratio at the time of adding the test compound by the fluorescence intensity ratio of the control solution and subtracting the sGC activity (100%) at the time of adding the control solution.
In this assay, intracellular cGMP concentration increases as sGC is activated, and according to opening of CNGA2 following the increase of cGMP, intracellular Ca^2+ concentration increases. Thus, SGC activation can be measured by following the change in intracellular Ca^2+ concentration. […] Thus, in the absence of ODQ, the maximum sGC activating function including the heme-dependent activation can be evaluated while the heme-independent sGC activating function can be evaluated in the presence of ODQ.

For experiment [2], the system named is abdominal aorta ring specimen. Put plainly: Evaluation of blood vessel relaxing function (phenylephrine-contracted abdominal aorta ring). Conditions: relaxation of rat abdominal aorta contracted with 1 μmol/L phenylephrine; without vs with 10 μmol/L ODQ. The protocol:
The representative compounds of the present invention were evaluated by blood vessel relaxing function according to the following Test Example. In the assay, bleeding from the upper part of a heart of a rat (male, SD) was performed under anesthesia with pentobarbital (30 mg/kg) and then abdominal aorta was extracted. The connecting tissue adhered around blood vessel was removed from the abdominal aorta in an ice-cooled Krebs-Henseleit solution (KH solution) (118 mmol/L sodium chloride, 4.7 mmol/L potassium chloride, 1.2 mmol/L magnesium sulfate, 1.2 mmol/L potassium dihydrogen phosphate, 25 mmol/L sodium hydrogen carbonate, 2.5 mmol/L calcium chloride, and 10 mmol/L glucose, pH 7.4). After that, a ring specimen with length of 2 mm was prepared and fixed in 5 mL organ bath filled with a KH solution. The KH solution was kept at 37° C. and aerated with a mixture gas of 95% O2 and 5% CO2. The specimen was stabilized for 1 hour with static tension of 1 g. The KH solution was exchanged twice during that time. The tension on the specimen was recorded on a multi-channel recorder via pickup and amplifier. After the stabilization of the specimen, contraction was caused by using 1 μmol/L phenylephrine (Phe), and cumulative administration of each compound (0.001, 0.01, 0.03, 0.1, 0.3, 1, 3, 10, 30, 100, 1000, 10000 nmol/L) was performed. For the evaluation of a case in which 1H-1,2,4-oxadiazole-(4,3a)-quinoxalin-1-one (ODQ) is contained, 10 μmol/L ODQ was added 10 minutes before the Phe addition, and the same evaluation as above was performed.
EC50 value was calculated using four-parameter logistics model using Assay Explorer (Accelrys). The test compound solution was dissolved in DMSO such that the concentration of each test compound is 1000 times the final concentration.

Experiment [3] has as its target T1, human sGC α subunit and β subunit. Kind of experiment: Heme-independent property of sGC activating function (EC50 ratio, CHO-K1 cells expressing human sGC and mouse CNGA2). The format is cell-based. Conditions: EC50 in the absence of ODQ divided by EC50 in the presence of ODQ, sGC activation. Here is the method:
as §1, §2, §3, §4
For the representative compounds, activity was measured in the same manner as Test Example 1 at each test concentration of 0.0001, 0.001, 0.003, 0.01, 0.03, 0.1, 1, and 10 μmol/L.
The degree of heme-independent property of each test compound with regard to sGC activating function was obtained by dividing, for EC50 measured from the concentration-activation curve which has been established from the above, EC50 in the absence of ODQ by EC50 in the presence of ODQ. Specifically, the smaller the EC50 ratio is, the less the change in sGC activating function is, the change in the function being caused by the presence or absence of ODQ, and thus it is found to be more heme-independent.
EC50 value was obtained by measuring the activity of each compound to be tested at concentrations of 0.0001, 0.001, 0.003, 0.01, 0.03, 0.1, 1, and 10 μmol/L and performing the calculation using four-parameter logistics model using Assay Explorer (Accelrys).

Where [4] appears, read: ODQ not contained, read-out: Emax (%) ODQ− (Heme-dependent).
Where [5] appears, read: with 10 μmol/L ODQ, read-out: Emax (%) ODQ+ (Heme-independent).

As usually defined, the Emax is the size of the effect at its maximum, as opposed to the concentration needed. Regarding `C[C@@H](Oc1ccccc1CCN(CCCCC(=O)O)C1CCCc2cc(C(=O)O)ccc21)c1ccc(C(C)(C)C)cc1` (stereo partly drawn) [Example 45, 5-{N-[2-[2-[(1R)-1-(4-tert-Butylphenyl)ethoxy]phenyl]ethyl]-N-(4-carboxybutyl)amino}-5,6,7,8-tetrahydronaphthalene-2-carboxylic acid], the Emax at 10 µM in experiment [1] (setting [4]) amounted to 95.3%; in experiment [1] (setting [5]), 121%. Besides, the “EC50 Ratio (ODQ−/ODQ+)” value in experiment [2] is 3.5.
On to `O=C(O)CCCCN(CCc1ccccc1OC[C@H]1CC[C@@H](CCc2ccccc2)CC1)C1CCCc2cc(C(=O)O)ccc21` (stereo partly drawn) [Example 27, 5-{N-(4-Carboxybutyl)-N-[2-[2-[cis-4-(2-phenylethyl)cyclohexylmethoxy]phenyl]ethyl]amino}-5,6,7,8-tetrahydronaphthalene-2-carboxylic acid], for which the maximal effect (Emax) at 10 µM in experiment [1] (setting [4]) was 113%; in experiment [1] (setting [5]) it was 96.6%. Also, in experiment [3], the “EC50 Ratio (ODQ−/ODQ+)” value stood at 1.84.
The corresponding values for `O=C(O)CCCCN(CCc1ccccc1OCc1ccc(CCc2ccccc2)cc1)C1CCCc2nc(C(=O)O)ccc21` (stereo not drawn) [Example 6, 5-{N-(4-Carboxybutyl)-N-[2-[2-[4-(2-phenylethyl)benzyloxy]phenyl]ethyl]amino}-5,6,7,8-tetrahydroquinoline-2-carboxylic acid] are 126%, 99.9% and 0.87.
The corresponding values for `O=C(O)CCCCN(CCc1ccccc1OCc1ccc(CCc2ccccc2)cc1)C1COCc2cc(C(=O)O)ccc21` (stereo not drawn) [Example 8, 4-{N-(4-Carboxybutyl)-N-[2-[2-[4-(2-phenylethyl)benzyloxy]phenyl]ethyl]amino}-isochromane-7-carboxylic acid] are 130%, 102% and 1.80.
The matching figures for `O=C(O)CCCCN(CCc1ccccc1OCc1ccc(/C=C/C2CCCCC2)cc1)C1CCCc2cc(C(=O)O)ccc21` (stereo not drawn) [Example 23, 5-{N-(4-Carboxybutyl)-N-[2-[2-[4-((E)-2-cyclohexylethenyl)benzyloxy]phenyl]ethyl]amino}-5,6,7,8-tetrahydronaphthalene-2-carboxylic acid]: 126%, 104% and 1.15.
Take `O=C(O)CCCCN(CCc1ccccc1OCc1ccc(CCc2ccccc2)cc1)C1CCc2cc(C(=O)O)ccc21` (stereo not drawn) [Example 1, 1-{N-(4-Carboxybutyl)-N-[2-[2-[4-(2-phenylethyl)benzyloxy]phenyl]ethyl]amino}indane-5-carboxylic acid]: the Emax at 10 µM amounted to 85.6% in experiment [1] (setting [4]) and 103% in experiment [1] (setting [5]). The “EC50 Ratio (ODQ−/ODQ+)” value in experiment [3] is reported as 2.86.
The corresponding values for `O=C(O)CCCCN(CCc1ccccc1OCc1ccc(CCc2ccccc2)cc1)C1COc2cc(C(=O)O)ccc21` (stereo not drawn) [Example 7, 3-{N-(4-Carboxybutyl)-N-[2-[2-[4-(2-phenylethyl)benzyloxy]phenyl]ethyl]amino}-2,3-dihydrobenzofuran-6-carboxylic acid] are 110%, 108% and 2.34.
The corresponding values for `O=C(O)CCCCN(CCc1ccccc1OCc1ccc(CCc2ccccc2)cc1)C1CCCCc2cc(C(=O)O)ccc21` (stereo not drawn) [Example 3, 5-{N-(4-Carboxybutyl)-N-[2-[2-[4-(2-phenylethyl)benzyloxy]phenyl]ethyl]amino}-6,7,8,9-tetrahydro-5H-benzocycloheptene-2-carboxylic acid] are 102%, 111% and 2.54.
